Type in all cases: physicochemical
Data set [1] in a line: Variable humidity X-ray powder diffraction (VH-XRPD). The note with it: desorption phase, 90% RH to 20% RH; starting from Form 2. How it is done: A known mass of 5-(3,6-dibromo-9H-carbazol-9-yl)-N,N,N-trimethylpentan-1-aminium chloride Form 2 (Compound A Form 2) was analyzed by variable humidity X-ray powder diffraction (VH-XRPD) on a Philips X'Pert Pro Multipurpose diffractometer quipped with a humidity chamber. The samples were scanned between 4 and 35.99° 2θ using Cu K radiation (α1 λ=1.54060 Å; α2=1.54443 Å; β=1.39225 Å; α1:α2 ratio=0.5) running in Bragg-Brentano geometry (step size 0.008° 2θ) using 40 kV/40 mA generator settings. Measurements were performed between 7-90% RH and XRPD scans were collected at each humidity step. The VH-XRPD analysis was conducted an absorption phase between ambient and 90% RH, a desorption phase between 90% RH and 7% RH, and a second absorption phase between 20% and 40% RH.

A short description of data set [2]: Accelerated stability tests of crystalline Compound A Form 1 (Table 5). Conditions: 7 days; for Purity after storage: HPLC. How it is done:
(§1) XRPD analysis was carried out on a PANalytical X'pert Pro with PIXcel detector (128 channels), scanning the samples between 3 and 35° […]. The material was gently ground (where required) to release any agglomerates and loaded onto a multi-well plate with Kapton or Mylar polymer film to support the sample. The multi-well plate was then placed into the diffractometer and analyzed using Cu K radiation (α1 λ=1.54060 Å; α2 λ=1.54443 Å; β λ=1.39225 Å; α1:α2 ratio=0.5) running in transmission mode (step size 0.0130° 2θ, step time 18.87 s) using 40 kV/40 mA generator settings. Data were visualized and images generated using the HighScore Plus 4.7 desktop application (PANalytical, 2017).
Crystalline Compound A (Form 1) was not changed after storage at room temperature for 7 days, storage at 40 °C/75% RH for 7 days, or storage at 80 °C for 7 days. Purity was determined by HPLC analysis.

A short description of data set [3]: Long-term stability tests of crystalline Compound A Form 1 (Table 6). The note with it: for Purity after storage: HPLC. How it is done: as §1
Crystalline Compound A (Form 1) was not changed after storage at 25 °C/60% RH for 36 months or storage at 40 °C/75% RH for 6 months. Purity was determined by HPLC analysis.

The nature of data set [4]: Karl Fischer (KF) coulometric titration. The note with it: in duplicate. How it is done: Water content of crystalline Compound A was determined using KF Coulometric Titration by either direct addition or liquid extraction.
10-20 mg of crystalline Compound A was weighed into a vial. The solid was then manually introduced into the titration cell of a Mettler Toledo C30 Compact Titrator. The vial was back-weighed after the addition of the solid and the weight of the added solid entered on the instrument. Titration was initiated once the sample had fully dissolved in the cell. The water content was calculated automatically by the instrument as a percentage and the data printed. The analysis was carried out in duplicate.
10-20 mg of crystalline Compound A was weighed into a vial, 10-15 mL of the Coulomat was extracted from the cell of a Mettler Toledo C30 Compact Titrator and added to the vial containing the sample. The solid was dissolved by shaking manually or using ultrasonic bath. When complete dissolution was achieved, the solution was injected back into the cell titrator and the weight of the sample added was entered on the instrument. The water content was calculated automatically by the instrument as a percentage and the data printed. The analysis was carried out in duplicate.

Data set [5] is described as follows: Conversion of Compound A Form 4 on standing in humid conditions. Conditions: standing at 25 °C and 40 °C and at >30% RH.
[6] abbreviates: 25 °C/60% RH (closed container), 24 months.

For `C[N+](C)(C)CCCCCn1c2ccc(Br)cc2c2cc(Br)ccc21.[Cl-]` [Compound A Form 2, 5-(3,6-dibromo-9H-carbazol-9-yl)-N,N,N-trimethylpentan-1-aminium chloride], in data set [1], the Crystalline form observed entry is “Crystalline Form 1 of Compound A was observed during the desorption phase between 90% RH and 20% RH”.

Regarding `C[N+](C)(C)CCCCCn1c2ccc(Br)cc2c2cc(Br)ccc21.[Cl-]` [Compound A Form 1, 5-(3,6-dibromo-9H-carbazol-9-yl)-N,N,N-trimethylpentan-1-aminium chloride], the XRPD after storage entry is “Unchanged” in data set [2] (40 °C/75% RH (open vial)); “Unchanged” in data set [2] (80 °C (closed vial)); “Unchanged” in data set [2] (Room Temperature (open vial)); “Unchanged” in data set [3] (25 °C/60% RH (closed container), 3 months); “Unchanged” in data set [3] (25 °C/60% RH (closed container), 6 months); “Unchanged” in data set [3] (25 °C/60% RH (closed container), 12 months). Further, the XRPD after storage entry in data set [3] (setting [6]) was “Unchanged”; in data set [3] (25 °C/60% RH (closed container), 36 months), “Unchanged”; in data set [3] (40 °C/75% RH (closed container), 1 month), “Unchanged”; in data set [3] (40 °C/75% RH (closed container), 3 months), “Unchanged”; in data set [3] (40 °C/75% RH (closed container), 6 months) it was “Unchanged”. Moreover, the Purity after storage was found to be 99.93% in data set [2] (40 °C/75% RH (open vial)); 99.93% in data set [2] (80 °C (closed vial)); 99.93% in data set [2] (Room Temperature (open vial)); 99.7% in data set [3] (25 °C/60% RH (closed container), 3 months, 131040 min); 99.7% in data set [3] (25 °C/60% RH (closed container), 6 months, 263520 min); 99.7% in data set [3] (25 °C/60% RH (closed container), 12 months, 525600 min). Moreover, the Purity after storage in data set [3] (setting [6]) came out at 99.7%; in data set [3] (25 °C/60% RH (closed container), 36 months, 1.5768e+06 min), 99.7%; in data set [3] (40 °C/75% RH (closed container), 1 month, 43200 min), 99.7%; in data set [3] (40 °C/75% RH (closed container), 3 months, 131040 min) it was 99.7%; in data set [3] (40 °C/75% RH (closed container), 6 months, 263520 min), 99.8%. Further, the Change after storage result was “not changed” in data set [2] (40 °C/75% RH); “not changed” in data set [2] (80 °C); “not changed” in data set [2] (room temperature); “not changed” in data set [3] (25 °C/60% RH, 36 months); “not changed” in data set [3] (40 °C/75% RH, 6 months). Besides, in data set [4] (listed as Form 1), the Water content was found to be 4.38% w/w %.

`C[N+](C)(C)CCCCCn1c2ccc(Br)cc2c2cc(Br)ccc21.[Cl-]` [Compound A Form 3, 5-(3,6-dibromo-9H-carbazol-9-yl)-N,N,N-trimethylpentan-1-aminium chloride] displayed a Water content in data set [4] (listed as Form 3) of 5.3% w/w %.

The molecule `C[N+](C)(C)CCCCCn1c2ccc(Br)cc2c2cc(Br)ccc21.[Cl-]` [Compound A Form 4, 5-(3,6-dibromo-9H-carbazol-9-yl)-N,N,N-trimethylpentan-1-aminium chloride] registered a Water content in data set [4] (listed as Form 4) of 1% w/w %. In data set [5], the “Conversion of crystalline form” value is reported as “converted to crystalline Form 1 of Compound A”.

These data come from patent US20260365622A1, “CRYSTALLINE CARBAZOLE DERIVATIVE AND METHODS OF MAKING THEREOF” (Raziel Therapeutics Ltd., priority 2022, published 2026).
